{"source": "patent US20110039314A1", "about": "“Composition for Catalytic Amide Production and Uses Thereof” (LOYOLA UNIVERSITY OF CHICAGO, priority 2009, published 2011)", "key": {"[1]": {"target": "Co-type nitrile hydratase from Pseudonocardia thermophile JCM 3095 (PtNHase) (Pseudonocardia thermophila, UniProt Q7SID2+Q7SID3)", "conditions": "previously reported value (ref. 21); cited from earlier work"}, "[2]": {"target": "Fe-type nitrile hydratase from Comamonas testosteroni Ni1 (CtNHase) (Comamonas testosteroni, UniProt J9PBS0+J9PBS1)", "conditions": "previously reported value (ref. 34); cited from earlier work"}, "[3]": {"substrate": "N#Cc1ccccc1", "experiment": "purified protein, by the assay type", "conditions": "other: benzonitrile hydrolysis, solution, pH 7.6, 25° C."}}}
{"molecule": "N#Cc1ccccc1", "note": "[benzonitrile]", "values": [{"measurement": "Km", "setting": "[1]", "result": 19, "unit": "µM"}, {"measurement": "kcat", "setting": "[1]", "result": 120, "unit": "s⁻¹"}]}
{"molecule": "N#CCCCCC(=O)O", "note": "[cyanovaleric acid]", "values": [{"measurement": "Km", "setting": "[2]", "result": 3200, "unit": "µM"}]}
{"molecule": "Co-type nitrile hydratase from Pseudonocardia thermophile JCM 3095 (PtNHase) (Pseudonocardia thermophila) (protein) chain 1: MTENILRKSDEEIQKEITARVKALESMLIEQGILTTSMIDRMAEIYENEVGPHLGAKVVVKAWTDPEFKKRLLADGTEACKELGIGGLQGEDMMWVENTDEVHHVVVCTLCSCYPWPVLGLPPNWFKEPQYRSRVVREPRQLLKEEFGFEVPPSKEIKVWDSSSEMRFVVLPQRPAGTDGWSEEELATLVTRESMIGVEPAKAV chain 2: MNGVYDVGGTDGLGPINRPADEPVFRAEWEKVAFAMFPATFRAGFMGLDEFRFGIEQMNPAEYLESPYYWHWIRTYIHHGVRTGKIDLEELERRTQYYRENPDAPLPEHEQKPELIEFVNQAVYGGLPASREVDRPPKFKEGDVVRFSTASPKGHARRARYVRGKTGTVVKHHGAYIYPDTAGNGLGECPEHLYTVRFTAQELWGPEGDPNSSVYYDCWEPYIELVDTKAAAA", "values": [{"measurement": "Km", "setting": "[3]", "result": 18, "unit": "µM"}, {"measurement": "kcat", "setting": "[3]", "result": 123, "unit": "s⁻¹"}]}
